Results from patent US20260286363A1, “COMPOSITIONS AND METHODS FOR DIAGNOSING, TREATING, AND PREVENTING LYSOSOMAL STORAGE DISEASES” (Wylder Nation Foundation, priority 2022, published 2026).
Read-outs that look alike come from different tables or passages of the source.

What was measured:
cultured wt neurons [1] = test: Cell viability MTT assay in cultured wt neurons; type: cell-based, mouse; settings: for neuronal death upon SM16:0 addition in the presence of acid and neutral sphingomyelinase inhibitors (MTT): wt neurons, SM16:0 plus desipramine or GW4869
Method: Cell viability was evaluated using the MTT (methylthiazolyldiphenyltetrazoliumbromide, Sigma) assay. Briefly, 3×10^4 neurons were plated in 96-well plates coated with poly-L-lysine (0.1 mg/ml). At DIV14 1 mM MTT was added to the wells and incubated for 4 h. Then, the supernatant was discarded, and […] DMSO was added to the wells. The absorbance was measured at 570 nm using a microplate reader (FLUOstar Optima, BMG Labtech). Cells treated with DMSO were used as a control.

[2] = test system: Cortical neurons from wt mice; test: LC/MS quantification of SM in cultured wt neurons incubated with SM species; type: cell-based, mouse; settings: for increase of total SM levels: wt cortical neurons cultured 48 hr with 40 μM; for relative abundance of the added SM species, of the total SM: wt cortical neurons, 48 hr, 40 μM
Method: Sample analysis was performed in an Acquity ultraperformance liquid chromatography (UPLC) system (Waters, USA) connected to a time-of-flight (TOF; LCT Premier XE) detector controlled with Waters/Micromass MassLynx software.
A study was done to determine the impact of the different increments of individual SM species in ASMko mice and cells on their specific accumulation in neurons. Cortical neurons from wt mice were cultured for 48 hr with 40 μM of either total SM from bovine brain (SMb, containing similar SM species proportions than total SM from mouse brain); or individual SM16:0; SM18:0 or SM24:1. […] LC/MS quantification assessed the effect of each treatment on the relative abundance of the added SM species. Incubation with SM16:0 and SM18:0 drastically raised the relative abundance of each of these species to 88% and 82% of the total (FIG. 2B). Incubation with SM24:1 increased the prevalence of this species to 30%, while addition of SMb reduced the relative abundance of SM18:0 and SM16:0 by 4% and 15%, respectively, while increased that of SM24:1 by 8% (FIG. 2B).

cultured wt neurons [3] = test: pSM16:0 co-localization with subcellular markers (Mander's coefficient); type: cell-based, mouse
Method: Cultured neurons at 14 DIV were fixed in 4% PFA 0.12M sucrose and incubated overnight with primary antibodies and subsequently for 1 h with Alexa 488- or Alexa 555-conjugated secondary antibodies. Images were taken using a confocal microscope LSM710 (Zeiss). The Mander's coefficient for pSM 16:0 co-localization with Thy1; PSD95; TOM20; EEA1; LAMP1; GM130 was determined by using the JACOP plugin. Mouse brains were dissected, fixed in 4% PFA 0.12M sucrose, and cryoprotected for 24 h in 30% sucrose phosphate buffer saline. The tissue was then frozen in Tissue-Tek optimal cutting temperature compound (Sakura Finetek, Torrance, CA, USA), and 40-μm sagittal sections were obtained with a cryostat (CM 1950 Ag Protect freezing: Leica, Solms, Germany). The sections were incubated overnight at 4° C. with the primary antibodies and then with the corresponding Alexa-conjugated secondary antibodies. Finally, the sections were incubated for 10 min with DAPI (Merck), washed, and mounted with ProLong Gold Antifade (Thermo Fisher). Images were obtained on a confocal LSM710 microscope (Zeiss) and quantified using the Fiji software.
Cultured neurons were treated with 40 μM propargyl SM (pSM 16:0) (Merck; #860711P) for 48 hours at DIV12. After immunofluorescence protocol, explained above, click reaction was performed for the attachment of fluorescent reporter (Sulfo-Cy3-Azide; Jena Biosciences; #CLK-AZ119-1) to pSM 16:0.
The surprising effects of SM16:0 on lysosomes compared to other SM species supported a hypothesis that this lipid targets these organelles. To explore this possibility, we took advantage of the existence of the analogue propargyl SM16:0 (pSM16:0), which is linked to an alkyne group and can be traced by click chemistry and fluorescence microscopy. We added pSM16:0 for 48 hours to cultured wt neurons and performed double immunofluorescence with markers of different cellular compartments.

ASM = biological target: T1, ASM (Mus musculus, UniProt Q04519); test: Enzymatic assay of SMb or SM16:0 metabolized by ASM activity; type: biochemical; settings: fluorescence per nmol metabolized, slope analysis
T1 sequence (Q04519 45-627): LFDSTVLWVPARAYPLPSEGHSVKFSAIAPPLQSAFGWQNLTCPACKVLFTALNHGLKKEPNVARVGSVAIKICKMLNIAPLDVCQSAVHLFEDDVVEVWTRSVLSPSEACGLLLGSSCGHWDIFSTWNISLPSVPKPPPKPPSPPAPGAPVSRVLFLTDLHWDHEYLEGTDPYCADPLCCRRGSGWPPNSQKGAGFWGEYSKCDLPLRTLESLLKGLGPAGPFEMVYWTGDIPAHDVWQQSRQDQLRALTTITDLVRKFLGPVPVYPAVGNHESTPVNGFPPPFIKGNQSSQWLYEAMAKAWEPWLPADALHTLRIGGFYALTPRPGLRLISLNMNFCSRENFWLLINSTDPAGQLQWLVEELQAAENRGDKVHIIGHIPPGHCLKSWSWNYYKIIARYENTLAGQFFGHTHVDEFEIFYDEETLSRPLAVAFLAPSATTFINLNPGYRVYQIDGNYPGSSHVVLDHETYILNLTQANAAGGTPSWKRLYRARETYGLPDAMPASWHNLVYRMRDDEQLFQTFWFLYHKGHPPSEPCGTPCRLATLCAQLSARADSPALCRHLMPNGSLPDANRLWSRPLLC
Method: SM levels were measured according to protocols modified from (Hojati and Jiang, 2006). Lipid extracts were dried in the presence of Thesit, and SM was converted into peroxide by incubation with sphingomyelinase (Smase C from Merck; #S9396 or ASM from Sino Biological; #50749-M08B), alkaline phosphatase, and choline oxidase. Peroxide was measured fluorimetrically in the presence of peroxidase and homovanillic acid (Van Veldhoven et al., 1997).

cultured wt neurons [4] = test: LAMP1 surface staining in non-permeabilized neurons (lysosomal exocytosis); type: cell-based, mouse
Method: ASMko and wt cultured neurons at 14DIV were washed with PBS and fixed with 2% PFA in PBS and 0.12 M sucrose for 8 min. Immunofluorescence was performed using a conventional protocol in the absence of detergent to avoid cell permeabilization.

[5] = test system: wt primary cultured neurons; settings: not told
Method: Lysotracker Red DND99 (Thermo Fisher Scientific) was added to wt primary cultured neurons at 1 μM and incubated for 20 min at 37° C. Cells were then fixed in 4% PFA and mounted using Prolong Gold Antifade (Invitrogen). Images were taken on a confocal LSM710 microscope (Zeiss).
To investigate the effect of the different SM species in these organelles, several lysosomal-related parameters were measured. To analyze lysosomal permeabilization, the lysotracker red dye, which fluoresces in acidic environments was utilized.

wt neurons = settings: cultured neurons
Method: To assess reactive oxygen species (ROS), cultured neurons were incubated for 20 min with dihydrorhodamine 123 (10 μM, DHR: Molecular Probes, Carlsbad, CA, USA). The fluorescence product of DHR, rhodamine-123, was detected at excitation and emission wavelengths of 500 and 536 nm, respectively. Images of cultured neurons were captured on a confocal microscope (LSM710; Zeiss).
Since high levels of SM also can induce oxidative stress, reactive oxygen species (ROS) was evaluated by dihydrorhodamine 123 (DHR) staining in wt neurons incubated with the different SM species.

ASM knock-out mice = test: Lipidomic analysis of brain, liver and plasma of ASM knock-out mice after i.p. rhASM; type: in vivo, mouse
Method: Mouse brain and liver samples were homogenized in water (1 g wet tissue/4 mL). SM was extracted from 50 μL of homogenate or 50 μL of plasma in the presence of SM (17:0) as internal standard using Bligh-Dyer lipid extraction (Bligh and Dyer, 1959). Sample analysis was performed in a Shimadzu 20AD HPLC system coupled to a 6500QTRAP+ mass spectrometer (AB Sciex, Framingham, MA) operated in positive multiple reaction monitoring mode. Data processing was conducted with Analyst 1.6.3 (AB Sciex). Data were reported as the peak area ratios of the analytes in sample to the internal standard.
To identify potential biomarkers of brain pathology in ASMD subjects a study was conducted in ASM knock-out mice. In brief, ASM knock-out mice received an i.p. injection of rhASM at 1 mg/kg every other day for 14 days. Results were compared to previous lipidomic analysis done on WT/ASMko mice at 2, 4, and 6 months.
Lipidomic analysis were completed on the brain, liver, and plasma of the treated mice. Analyzed lipids comprised: SM, LSM, SM OH, and m/z 805 (a phosphocholine compound). Total SM levels post i.p. rhASM injection are shown in FIG. 13A and below at Table 3.

[6] = 48 hours, wt neurons, Mander's coefficient
[7] = Liver, i.p. 1 mg/kg every other day for 14 days
[8] = Plasma, i.p. 1 mg/kg every other day for 14 days

Molecule: sphingomyelin 24:1 [SM24:1]
- reduction of neuronal survival / cell death (MTT) (cultured wt neurons [1]): no deleterious effects
- increase of total SM levels [2]: not significant
- relative abundance of the added SM species, of the total SM [2]: 30%

Molecule: CCCCCCCCCCCCC/C=C/[C@@H](O)[C@H](COP(=O)([O-])OCC[N+](C)(C)C)NC(=O)CCCCCCCCCCCCCCCCC [SM18:0, sphingomyelin 18:0]
- reduction of neuronal survival / cell death (MTT) (cultured wt neurons [1]; mouse, cultured neurons): 25%
- increase of total SM levels [2]: 3.5 fold
- relative abundance of the added SM species, of the total SM [2]: 82%

Molecule: Cl.Cl.O=C(/C=C/c1ccc(/C=C/C(=O)Nc2ccc(C3=NCCN3)cc2)cc1)Nc1ccc(C2=NCCN2)cc1 [GW4869]
- neuronal death upon SM16:0 addition in the presence of acid and neutral sphingomyelinase inhibitors (MTT) (cultured wt neurons [1]): not prevented

Molecule: CCCCCCCCCCCCC/C=C/[C@@H](O)[C@@H](N)COP(=O)([O-])OCC[N+](C)(C)C [LysoSM, lyso-sphingomyelin]
- deleterious effects on cultured neurons (MTT viability) (cultured wt neurons [1]; addition to cultured neurons): did not find deleterious effects

Molecule: propargyl SM16:0 [pSM16:0]
- co-localization with early endosome marker EEA1 (cultured wt neurons [3]; [6]): low degree of co-localization
- co-localization with mitochondrial marker TOM20 (cultured wt neurons [3]; [6]): low degree of co-localization
- co-localization with plasma membrane marker Thy-1 (cultured wt neurons [3]; [6]): low degree of co-localization
- co-localization with synaptic marker PSD95 (cultured wt neurons [3]; [6]): low degree of co-localization
- colocalization with Golgi apparatus marker GM130 (cultured wt neurons [3]; [6]): high colocalization
- colocalization with endolysosomal marker LAMP1 (cultured wt neurons [3]; [6]): high colocalization

Molecule: CCCCCCCCCCCCC/C=C/[C@@H](O)[C@H](COP(=O)([O-])OCC[N+](C)(C)C)NC(=O)CCCCCCCCCCCCCCC [SM16:0, sphingomyelin 16:0]
- reduction of neuronal survival / cell death (MTT) (cultured wt neurons [1]; mouse, cultured neurons): 50%
- neuronal death upon SM16:0 addition in the presence of acid and neutral sphingomyelinase inhibitors (MTT) (cultured wt neurons [1]): induces cell death
- substrate preference of ASM (SM16:0 vs SMb) (ASM): ASM has a preference to degrade SM16:0
- lysosomal exocytosis (surface staining of LAMP1) (cultured wt neurons [4]): induced lysosomal exocytosis
- lysosomal permeabilization (change of Lysotracker staining from dotty to diffuse cytosolic pattern) [5]: indicative of lysosomal permeabilization
- accumulation in lysosomes (pSM16:0 colocalization with Lamp1) (cultured wt neurons [3]; wt neurons treated with ASM inhibitor desipramine): accumulates in lysosomes
- increase of total SM levels [2]: 6.6 fold
- relative abundance of the added SM species, of the total SM [2]: 88%
- elevation in ROS levels (DHR staining) (wt neurons): 1.6 fold

B1: rhASM: recombinant human acid sphingomyelinase (protein, UniProt P17405 47-631, looked up)
Sphingomyelin …: LALSDSRVLWAPAEAHPLSPQGHPARLHRIVPRLRDVFGWGNLTCPICKGLFTAINLGLKKEPNVARVGSVAIKLCNLLKIAPPAVCQSIVHLFEDDMVEVWRRSVLSPSEACGLLLGSTCGHWDIFSSWNISLPTVPKPPPKPPSPPAPGAPVSRILFLTDLHWDHDYLEGTDPDCADPLCCRRGSGLPPASRPGAGYWGEYSKCDLPLRTLESLLSGLGPAGPFDMVYWTGDIPAHDVWHQTRQDQLRALTTVTALVRKFLGPVPVYPAVGNHESTPVNSFPPPFIEGNHSSRWLYEAMAKAWEPWLPAEALRTLRIGGFYALSPYPGLRLISLNMNFCSRENFWLLINSTDPAGQLQWLVGELQAAEDRGDKVHIIGHIPPGHCLKSWSWNYYRIVARYENTLAAQFFGHTHVDEFEVFYDEETLSRPLAVAFLAPSATTYIGLNPGYRVYQIDGNYSGSSHVVLDHETYILNLTQANIPGAIPHWQLLYRARETYGLPNTLPTAWHNLVYRMRGDMQLFQTFWFLYHKGHPPSEPCGTPCRLATLCAQLSARADSPALCRHLMPDGSLPEAQSLWPRPLFC
- SM 16:0 level decrease after i.p. rhASM injection (ASM knock-out mice; Brain): does not change
- Total LSM levels, % Decrease with rhASM injection (ASM knock-out mice; Brain, i.p. 1 mg/kg every other day for 14 days): does not change
- SM 16:0 level decrease after i.p. rhASM injection (ASM knock-out mice; Liver): 15%
- Total SM levels, % Decrease with rhASM injection (ASM knock-out mice; [7]): 22%
- Total m/z 805 levels, % Decrease with rhASM injection (ASM knock-out mice; [7]): 70%
- SM 16:0 level decrease after i.p. rhASM injection (ASM knock-out mice; Plasma): 35%
- Total LSM levels, % Decrease with rhASM injection (ASM knock-out mice; [8]): 70%
- Total SM levels, % Decrease with rhASM injection (ASM knock-out mice; [8]): 31%
- SM OH levels after i.p. rhASM injection (ASM knock-out mice; brain, liver, plasma): reduction in all samples tested
- m/z 805 levels after rhASM injections, across tissues (ASM knock-out mice; brain, liver, plasma): decreases only in the liver
